Reference: ChEMBL document CHEMBL5291721, “A preclinical secondary pharmacology resource illuminates target-adverse drug reaction associations of marketed drugs” (Nat Commun, 2023)

Key:
Adenosine receptor A1 = target: T1, Adenosine receptor A1 (Homo sapiens, UniProt P30542)
T1 sequence (P30542 whole entry): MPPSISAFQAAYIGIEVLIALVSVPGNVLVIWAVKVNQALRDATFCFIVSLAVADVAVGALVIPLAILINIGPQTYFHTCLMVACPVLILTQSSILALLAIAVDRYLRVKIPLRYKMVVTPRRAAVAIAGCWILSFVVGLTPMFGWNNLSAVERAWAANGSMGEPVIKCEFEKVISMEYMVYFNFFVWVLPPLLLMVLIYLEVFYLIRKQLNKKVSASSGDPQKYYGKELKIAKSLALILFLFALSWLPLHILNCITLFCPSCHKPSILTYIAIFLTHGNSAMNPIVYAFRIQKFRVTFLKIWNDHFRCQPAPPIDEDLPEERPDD

[1] = target: T2, Alpha-2B adrenergic receptor (Homo sapiens, UniProt P18089)
T2 sequence (P18089 whole entry): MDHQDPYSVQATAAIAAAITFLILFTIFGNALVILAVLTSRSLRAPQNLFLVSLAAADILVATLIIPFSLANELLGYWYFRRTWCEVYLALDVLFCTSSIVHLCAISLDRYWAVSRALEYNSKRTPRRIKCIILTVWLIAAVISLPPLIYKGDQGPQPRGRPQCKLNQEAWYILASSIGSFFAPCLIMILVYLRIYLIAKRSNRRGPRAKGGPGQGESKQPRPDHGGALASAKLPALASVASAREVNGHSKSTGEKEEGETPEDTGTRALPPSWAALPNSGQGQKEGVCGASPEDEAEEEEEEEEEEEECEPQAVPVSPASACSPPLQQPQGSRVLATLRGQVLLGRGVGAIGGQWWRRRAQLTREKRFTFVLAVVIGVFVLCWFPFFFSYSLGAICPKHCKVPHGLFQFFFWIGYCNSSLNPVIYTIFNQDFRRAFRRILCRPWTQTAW

[2] = target: T3, Cholecystokinin receptor type A (Homo sapiens, UniProt P32238)
T3 sequence (P32238 whole entry): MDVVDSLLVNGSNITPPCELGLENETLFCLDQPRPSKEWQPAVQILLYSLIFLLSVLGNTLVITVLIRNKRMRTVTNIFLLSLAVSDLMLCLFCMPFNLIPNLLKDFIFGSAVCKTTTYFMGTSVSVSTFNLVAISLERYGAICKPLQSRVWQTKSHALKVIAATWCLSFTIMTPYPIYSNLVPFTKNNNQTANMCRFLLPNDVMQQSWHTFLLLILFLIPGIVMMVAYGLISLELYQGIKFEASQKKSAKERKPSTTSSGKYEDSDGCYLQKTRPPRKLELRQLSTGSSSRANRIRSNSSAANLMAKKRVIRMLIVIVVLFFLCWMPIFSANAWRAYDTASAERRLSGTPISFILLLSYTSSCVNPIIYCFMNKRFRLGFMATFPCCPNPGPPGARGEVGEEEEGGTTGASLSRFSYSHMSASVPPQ

[3] = target: T4, Muscarinic acetylcholine receptor M2 (Homo sapiens, UniProt P08172); assay type: functional, cell-based
T4 sequence (P08172 whole entry): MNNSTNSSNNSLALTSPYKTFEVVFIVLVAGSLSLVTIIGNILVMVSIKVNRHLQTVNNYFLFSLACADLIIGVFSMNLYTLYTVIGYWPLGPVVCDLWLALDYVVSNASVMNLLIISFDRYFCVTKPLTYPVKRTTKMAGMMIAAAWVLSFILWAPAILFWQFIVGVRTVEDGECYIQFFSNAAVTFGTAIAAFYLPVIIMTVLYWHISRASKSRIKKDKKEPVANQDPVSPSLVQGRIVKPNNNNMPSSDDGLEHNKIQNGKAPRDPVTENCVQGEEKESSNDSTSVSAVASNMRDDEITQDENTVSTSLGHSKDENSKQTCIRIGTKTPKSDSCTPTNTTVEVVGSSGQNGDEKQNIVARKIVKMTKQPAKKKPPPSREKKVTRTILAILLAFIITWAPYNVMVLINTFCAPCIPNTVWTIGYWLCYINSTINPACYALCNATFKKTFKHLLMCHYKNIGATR

[4] = target: Muscarinic acetylcholine receptor M3 (Homo sapiens, UniProt P20309)
Chain of Muscarinic acetylcholine receptor M3 (P20309 whole entry): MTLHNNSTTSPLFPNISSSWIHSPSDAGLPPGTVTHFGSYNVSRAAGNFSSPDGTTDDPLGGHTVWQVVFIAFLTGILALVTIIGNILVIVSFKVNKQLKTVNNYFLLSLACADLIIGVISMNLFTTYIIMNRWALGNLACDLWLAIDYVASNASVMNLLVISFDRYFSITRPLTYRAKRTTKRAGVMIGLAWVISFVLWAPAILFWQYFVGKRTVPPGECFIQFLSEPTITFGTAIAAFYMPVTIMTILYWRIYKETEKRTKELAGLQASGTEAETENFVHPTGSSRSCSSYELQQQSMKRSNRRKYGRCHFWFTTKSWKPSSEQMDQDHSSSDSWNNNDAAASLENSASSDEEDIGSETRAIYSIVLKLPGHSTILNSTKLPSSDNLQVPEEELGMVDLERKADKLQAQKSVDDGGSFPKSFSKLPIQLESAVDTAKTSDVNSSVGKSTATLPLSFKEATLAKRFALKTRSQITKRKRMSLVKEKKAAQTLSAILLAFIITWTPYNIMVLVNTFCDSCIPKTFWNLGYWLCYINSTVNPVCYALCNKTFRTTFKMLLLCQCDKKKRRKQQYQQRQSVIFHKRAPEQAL

Cannabinoid receptor 1 = Cannabinoid receptor 1 (Homo sapiens, UniProt P21554); assay type: functional, cell-based
Chain of Cannabinoid receptor 1 (P21554 whole entry): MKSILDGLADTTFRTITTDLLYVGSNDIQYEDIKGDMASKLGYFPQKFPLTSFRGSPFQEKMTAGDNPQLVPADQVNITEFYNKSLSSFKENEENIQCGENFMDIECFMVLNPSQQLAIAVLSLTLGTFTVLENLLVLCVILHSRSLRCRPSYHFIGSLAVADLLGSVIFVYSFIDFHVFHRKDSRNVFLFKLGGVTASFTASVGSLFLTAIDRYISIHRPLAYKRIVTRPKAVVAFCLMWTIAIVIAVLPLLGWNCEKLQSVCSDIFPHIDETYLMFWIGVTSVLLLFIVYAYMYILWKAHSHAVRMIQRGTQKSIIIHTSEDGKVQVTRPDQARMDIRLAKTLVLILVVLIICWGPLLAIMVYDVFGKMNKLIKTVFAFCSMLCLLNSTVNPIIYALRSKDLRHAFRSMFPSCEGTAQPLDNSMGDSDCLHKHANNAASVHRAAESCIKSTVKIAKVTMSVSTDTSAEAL

[5] = target: T5, 5-hydroxytryptamine receptor 1A (Homo sapiens, UniProt P08908); assay type: functional, cell-based
T5 sequence (P08908 whole entry): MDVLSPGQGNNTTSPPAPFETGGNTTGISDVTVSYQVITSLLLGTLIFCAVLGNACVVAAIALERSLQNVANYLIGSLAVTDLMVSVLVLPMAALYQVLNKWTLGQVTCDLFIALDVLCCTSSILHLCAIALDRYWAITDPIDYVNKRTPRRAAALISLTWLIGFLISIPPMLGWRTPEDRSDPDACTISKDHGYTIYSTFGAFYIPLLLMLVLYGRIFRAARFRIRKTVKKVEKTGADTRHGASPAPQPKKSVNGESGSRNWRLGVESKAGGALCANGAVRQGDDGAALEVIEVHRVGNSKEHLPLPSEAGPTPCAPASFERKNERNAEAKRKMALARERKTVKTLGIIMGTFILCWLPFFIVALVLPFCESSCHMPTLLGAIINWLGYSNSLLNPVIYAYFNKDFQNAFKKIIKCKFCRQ

[6] = target: 5-hydroxytryptamine receptor 2B (Homo sapiens, UniProt P41595); assay type: functional, cell-based
Chain of 5-hydroxytryptamine receptor 2B (P41595 whole entry): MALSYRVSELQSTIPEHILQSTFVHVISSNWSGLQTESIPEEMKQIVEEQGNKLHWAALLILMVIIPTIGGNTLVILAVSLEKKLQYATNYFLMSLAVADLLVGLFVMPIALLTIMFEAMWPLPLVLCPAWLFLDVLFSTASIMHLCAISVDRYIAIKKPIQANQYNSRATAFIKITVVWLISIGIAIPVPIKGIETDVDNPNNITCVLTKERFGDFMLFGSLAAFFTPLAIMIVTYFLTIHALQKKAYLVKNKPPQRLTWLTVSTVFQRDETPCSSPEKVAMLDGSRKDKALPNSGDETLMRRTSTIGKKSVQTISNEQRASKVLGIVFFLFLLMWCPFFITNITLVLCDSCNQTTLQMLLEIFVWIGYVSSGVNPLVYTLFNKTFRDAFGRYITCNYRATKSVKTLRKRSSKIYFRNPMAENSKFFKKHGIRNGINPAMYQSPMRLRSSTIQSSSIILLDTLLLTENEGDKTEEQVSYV

[7] = target: T6, 5-hydroxytryptamine receptor 2C (Homo sapiens, UniProt P28335)
T6 sequence (P28335 whole entry): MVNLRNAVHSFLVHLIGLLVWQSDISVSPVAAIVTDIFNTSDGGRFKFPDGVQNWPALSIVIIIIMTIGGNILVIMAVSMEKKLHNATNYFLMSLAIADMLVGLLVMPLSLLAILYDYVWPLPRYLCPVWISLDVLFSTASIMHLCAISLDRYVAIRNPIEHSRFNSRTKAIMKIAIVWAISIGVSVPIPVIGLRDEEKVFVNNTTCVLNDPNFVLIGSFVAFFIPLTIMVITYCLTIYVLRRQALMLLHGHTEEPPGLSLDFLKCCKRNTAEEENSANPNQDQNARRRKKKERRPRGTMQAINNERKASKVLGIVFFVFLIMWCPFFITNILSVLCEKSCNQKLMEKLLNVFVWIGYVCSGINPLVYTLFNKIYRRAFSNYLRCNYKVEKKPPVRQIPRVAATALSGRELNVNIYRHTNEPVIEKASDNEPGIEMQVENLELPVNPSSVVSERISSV

Motilin receptor = Motilin receptor (Homo sapiens, UniProt O43193)
Chain of Motilin receptor (O43193 whole entry): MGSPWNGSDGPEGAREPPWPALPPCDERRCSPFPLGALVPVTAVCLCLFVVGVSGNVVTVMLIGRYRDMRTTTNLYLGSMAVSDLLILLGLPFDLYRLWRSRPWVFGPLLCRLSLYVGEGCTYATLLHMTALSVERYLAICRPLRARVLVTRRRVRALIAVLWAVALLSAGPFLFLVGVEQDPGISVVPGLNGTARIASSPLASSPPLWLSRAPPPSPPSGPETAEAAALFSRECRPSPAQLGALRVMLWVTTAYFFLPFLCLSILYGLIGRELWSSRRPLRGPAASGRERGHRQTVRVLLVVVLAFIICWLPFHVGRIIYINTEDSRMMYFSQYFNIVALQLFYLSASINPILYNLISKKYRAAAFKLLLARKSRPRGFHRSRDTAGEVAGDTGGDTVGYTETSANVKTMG

[8] = target: Delta-type opioid receptor (Homo sapiens, UniProt P41143)
Chain of Delta-type opioid receptor (P41143 whole entry): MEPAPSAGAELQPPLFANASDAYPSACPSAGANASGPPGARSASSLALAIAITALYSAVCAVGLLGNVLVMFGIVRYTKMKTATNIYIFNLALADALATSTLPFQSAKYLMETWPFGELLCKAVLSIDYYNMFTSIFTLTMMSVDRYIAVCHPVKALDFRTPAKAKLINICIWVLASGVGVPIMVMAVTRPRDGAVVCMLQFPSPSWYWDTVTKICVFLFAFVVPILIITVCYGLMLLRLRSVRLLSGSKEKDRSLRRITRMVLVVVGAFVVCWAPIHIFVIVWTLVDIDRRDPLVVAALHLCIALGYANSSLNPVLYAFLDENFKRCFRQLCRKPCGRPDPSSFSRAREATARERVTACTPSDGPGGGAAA

D(3) dopamine receptor = D(3) dopamine receptor (Homo sapiens, UniProt P35462)
Chain of D(3) dopamine receptor (P35462 whole entry): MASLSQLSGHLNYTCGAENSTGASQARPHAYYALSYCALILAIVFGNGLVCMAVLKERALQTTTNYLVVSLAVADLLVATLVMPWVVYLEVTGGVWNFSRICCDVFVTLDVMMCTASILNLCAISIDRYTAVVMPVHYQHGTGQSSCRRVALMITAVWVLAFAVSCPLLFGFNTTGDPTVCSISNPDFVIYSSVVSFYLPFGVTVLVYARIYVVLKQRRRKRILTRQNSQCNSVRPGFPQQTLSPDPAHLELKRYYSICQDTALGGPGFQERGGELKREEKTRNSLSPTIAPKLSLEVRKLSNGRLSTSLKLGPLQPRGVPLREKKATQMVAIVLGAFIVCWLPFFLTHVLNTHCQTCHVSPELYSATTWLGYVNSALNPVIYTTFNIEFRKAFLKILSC
Further: assay procedure not described here.

| AC50 (Adenosine receptor A1) [µM] | AC50 [1] [µM] | AC50 [2] [µM] | AC50 [3] [µM] | AC50 [4] [µM] | AC50 (Cannabinoid receptor 1) [µM] | AC50 [5] [µM] | AC50 [6] [µM] | AC50 [7] [µM] | AC50 (Motilin receptor) [µM] | AC50 [8] [µM] | AC50 (D(3) dopamine receptor) [µM] | SMILES |
| --- | --- | --- | --- | --- | --- | --- | --- | --- | --- | --- | --- | --- |
| > 10 | > 10 | > 10 | > 10 | > 30 | > 30 | > 10 | > 10 | 8.3 | > 10 | > 30 | > 30 | CN(C)CCC(O)(c1ccccc1)c1ccccc1Cl (stereo not given) [CHLOPHEDIANOL] |
| > 30 | > 30 | > 30 | > 30 | > 30 | > 30 | > 30 | > 30 | 8.7 | 16 | > 30 | > 30 | C[C@]12C=CC(=O)C=C1C(Cl)=C[C@@H]1[C@@H]2[C@@H](O)C[C@@]2(C)[C@H]1CC[C@]2(O)C(=O)CO [CLOPREDNOL] |
| > 10 | > 10 | > 10 | > 10 | > 10 | > 30 | > 30 | > 10 | > 30 | > 10 | > 30 | > 30 | CN(C)[C@@H]1C(O)=C(C(=O)NCN2CCCC2)C(=O)[C@@]2(O)C(O)=C3C(=O)c4c(O)cccc4[C@@](C)(O)[C@H]3C[C@@H]12 [ROLITETRACYCLINE] |
| > 30 | > 30 | > 30 | 20 | > 30 | > 30 | > 30 | > 30 | > 30 | > 30 | > 30 | > 30 | C[C@]12CCC(=O)C=C1C=C[C@@H]1[C@@H]2CC[C@@]2(C)[C@H]1CC[C@@]21CCC(=O)O1 [CANRENONE] |

| SMILES | AC50 (Adenosine receptor A1) [µM] | AC50 [1] [µM] | AC50 [2] [µM] | AC50 [3] [µM] | AC50 [4] [µM] | AC50 (Cannabinoid receptor 1) [µM] | AC50 [5] [µM] | AC50 [6] [µM] | AC50 [7] [µM] | AC50 (Motilin receptor) [µM] | AC50 [8] [µM] | AC50 (D(3) dopamine receptor) [µM] |
| --- | --- | --- | --- | --- | --- | --- | --- | --- | --- | --- | --- | --- |
| Oc1cc(Cl)ccc1Oc1ccc(Cl)cc1Cl [TRICLOSAN] | > 30 | > 30 | > 30 | > 30 | > 30 | > 30 | > 30 | > 30 | > 30 | > 30 | > 30 | > 30 |
